These results are taken from US8247569B2, “Cyclohexane derivative and pharmaceutical use thereof” (Toray Industries, Inc., priority 2008, dated 2012).

Where two headings read alike, the source gives them in different places.

Data set [1] is described as follows: evaluation of safety using mice, 5-day repeated oral administration. Type of data set: in vivo. The note with it: for no-observed-adverse-effect-level: Crlj:CD1 (ICR) mice, repeated oral administration for 5 days, assumed value. How it is done:
Crlj:CD1 (ICR) mice of 7 weeks old were subjected to repeated oral administration of Example 2-B or Comparative Example 29 for 5 days, and observation of clinical sign, measurement of body weight, hematology, blood chemistry, gross autopsy, measurement of organ weight and histopathology were carried out. Further, on Day 1 and Day 5 after the administration, TK measurement was carried out. Exposure to the respective compounds was confirmed.
The doses of Example 2-B were 0, 40, 200 and 1000 mg/kg/day, and those of Comparative Example 29 were 0, 30, 100 and 300 mg/kg/day. The solution to be administered was prepared using 0.5% aqueous methyl cellulose solution as a vehicle, such that the administration volume becomes 10 mL/kg.

A short description of data set [2]: mouse liver microsomal stability assay. The class given is in vitro ADME. The note with it: pH 7.4; mouse liver microsomes 0.5 mg/mL; test compound 2 μmol/L; 37° C., 0-30 min; read-out: Hepatic intrinsic clearance, Mouse. As for the experimental part:
(§1) A liver microsomal stability assay, which is known to be an in vitro assay for evaluation of the stability of a compound against hepatic metabolism, was carried out to evaluate the stability of Compound (I) against human and mouse hepatic metabolism.
(§2) A total of 4 times of experiments were carried out for the combinations of the compound of Example 2-B or the compound of Comparative Example 29 as the test compound and human liver microsomes (Xenotech) or mouse liver microsomes (Xenotech) as the liver microsomes.
The respective reagents to be used for the liver microsomal stability assay were prepared as follows. That is, an appropriate amount of D-glucose 6-phosphate disodium salt (hereinafter referred to as G6P) was dissolved in distilled water at 100 mmol/L, to prepare 100 mmol/L aqueous G6P solution. In 5 mL of distilled water, 1000 units of Glucose 6-phosphate dehydrogenase from Yeast (hereinafter referred to as G6PDH) was dissolved, to prepare 200 units/mL aqueous G6PDH solution. An appropriate amount of MgCl2 was dissolved in distilled water at 100 mmol/L, to prepare 100 mmol/L aqueous MgCl2 solution. […]

A short description of data set [3]: pharmacokinetics (PK) test in mice. Particulars: mouse, plasma, female CD1 (ICR) mice, fasted; for clearance: intravenous, read-out: total body clearance (converted); for bioavailability: oral vs intravenous administration, from dose-normalized AUC0-24 hr, read-out: bioavailability (BA). Type of data set: in vivo. How it is done:
Example 2-B or Comparative Example 29 was orally administered to mice, and the plasma level after the administration was measured to study the influence of improvement of the metabolic stability in liver microsomes on the change in the plasma level of the compound.
Female CD1 (ICR) mice of 7 weeks old which had been fed ad libitum with pellets (Oriental Yeast Co., Ltd.) and tap water were fasted for 17 hours before the administration. Feeding to the mice was begun again 4 hours after the administration.
In the case of intravenous administration of the solution, the animal was fixed in a holder, and the administration was carried out from the tail vein without anesthesia, using a syringe with an injection needle (25 G) attached thereto. In the case of oral administration, a syringe with a feeding needle attached thereto was used without anesthesia to force the solution into the stomach.
In terms of the mice to which the solution was intravenously administered, blood was collected a total of 8 times from the jugular vein or heart 5, 15 and 30 minutes and 1, 2, 4, 8 and 24 hours after the intravenous administration. In terms of the mice to which the solution was orally administered, blood was collected a total of 8 times from the jugular vein or heart 15, 30 and 45 minutes and 1, 2, 4, 8 and 24 hours after the oral administration. Further, from the jugular vein or heart of mice to which the solution was not administered, blood was collected as a blank. The collected blood was centrifuged at 4° C. at 12000 rpm for 5 minutes, and the obtained mouse plasma and blank plasma were stored at about −20° C. until preparation of samples for analysis. […]
From the results of the LC/MS/MS analysis, a calibration curve was prepared using Analysis 1.4 (Applied Biosystems). Based on the LC/MS/MS analysis and the prepared calibration curve, the concentration in each measurement sample was calculated using Analysis 1.4. For 3 times each of the experiments by intravenous administration and oral administration, the mean plasma level at each time point was calculated, and PK analysis was carried out using the obtained values (FIG. 6 and FIG. 7; each plot indicates the mean plasma level at each time point and its ±standard deviation; i.v. indicates test data by intravenous administration; and p.o. indicates test data by oral administration). The PK parameter was calculated using WinNonlin (Pharsight) by analysis independent of the models (intravenous administration: Model 201, oral administration: Model 200). Further, the bioavailability (BA) was calculated by normalization by dividing AUC0-24 hr from the time point of the intravenous administration or oral administration to the time point of the final blood collection by the dose.

Data set [4] can be described thus: human liver microsomal stability assay. Type of data set: in vitro ADME. The note with it: liver microsomes, pH 7.4, human liver microsomes 0.5 mg/mL, test compound 2 μmol/L, 37° C., 0-30 min. As for the experimental part: as §1, §2
The respective reagents to be used for the liver microsomal stability assay were prepared as follows. That is, an appropriate amount of D-glucose 6-phosphate disodium salt (hereinafter referred to as G6P) was dissolved in distilled water at 100 mmol/L, to prepare 100 mmol/L aqueous G6P solution. In 5 mL of distilled water, 1000 units of Glucose 6-phosphate dehydrogenase from Yeast (hereinafter referred to as G6PDH) was dissolved, to prepare 200 units/mL aqueous G6PDH solution. An appropriate amount of MgCl2 was dissolved in distilled water at 100 mmol/L, to prepare 100 mmol/L aqueous MgCl2 solution. To 500 mL of 200 mmol/L aqueous K2HPO4 solution, 200 mmol/L aqueous KH2PO4 solution (about 130 mL) was added, and pH was adjusted to 7.4, to prepare 200 mmol/L KH2PO4/K2HPO4 buffer pH7.4 (hereinafter referred to as 200 mmol/L PB). β-nicotinamide-adenine dinucleotide phosphate, reduced form, tetrasodium salt (hereinafter referred to as (NADPH) was dissolved in distilled water such that the NADPH content becomes 10 mmol/L based on the purity (Purity NADPH) in the assay data described in the attached document, to prepare 10 mmol/L aqueous NADPH solution.
The liver microsomal stability assay was carried out according to the following procedure. First, the reagents listed in Table 12 (excluding microsomes) were mixed together to prepare a reaction mixture, and the reaction mixture was aliquoted in 130 μL volumes to 4 wells (which play roles as the wells for the 0-minute reaction, well for the 30-minute reaction, well for the 20-minute reaction and well for the 10-minute reaction, respectively) in a 96-well tube plate (BM Equipment Co., Ltd; hereinafter referred to as plate). The entire plate was covered with a silicone cap, and the plate was subjected to preincubation by being soaked in a water bath at 37° C. for 10 minutes.
After the preincubation, 3.75 μL of 20 mg/mL microsome suspension+16.25 μL of distilled water (20 μL in total) were added to the well for the 30-minute reaction, and the plate was covered with the cap, followed by soaking the plate in a water bath at 37° C. to initiate the reaction.
Ten minutes after the beginning of the reaction, 3.75 μL of 20 mg/mL microsome suspension+16.25 μL of distilled water (20 μL in total) were added to the well for the 20-minute reaction, and 20 minutes after the beginning of the reaction, 3.75 μL of 20 mg/mL microsome suspension+16.25 μL of distilled water (20 μL in total) were added to the well for the 10-minute reaction. The reaction was further continued by keeping the plate soaked in the water bath at 37° C.
Thirty minutes after the beginning of the reaction, the plate was removed from the water bath, and 120 μL of acetonitrile was added to each well, followed by covering the plate with the cap, stirring the plate for 10 seconds with Direct Mixer, and stopping the reaction by 10 minutes of ice cooling. After the reaction was stopped, 3.75 μL of 20 mg/mL microsome suspension+16.25 μL of distilled water (20 μL in total) were added to the well for the 0-minute reaction.
The reaction liquid in each well was centrifuged at 4° C. at 2500 rpm for 10 minutes, and the supernatant was transferred to a glass-coated microplate (TOMSIC Plate+) to begin LC/MS/MS analysis. The conditions for the LC/MS/MS analysis were as follows: […]
For orientation: Liver microsomes are a subcellular fraction often used to study metabolism.

In data set [5] the test system is mouse sciatic nerve-ligation model (Seltzer model). Kind of data set: mouse partial sciatic nerve ligation model (Seltzer model), von Frey test. The note with it: for von Frey total score compared to the vehicle group: 1 hour after oral administration, doses as in Table 11; for Score improvement rate: 1 hour after administration; for von Frey Total Score Observed 1 Hour after Oral Administration (mean ± standard error), Compound-administered group: n = 5 to 6.

Data set [6] relates to mouse acetic acid writhing model. Kind of data set: mouse acetic acid writhing model (nociceptive pain). The note with it: male ddY mice, oral administration 45 min before 0.6% acetic acid i.p., dose suppressing 50% of writhing responses vs vehicle group, vehicle A or B. The class given is in vivo. Background: An intraperitoneal irritant provokes the stretching counted in writhing tests.

Setting [7] is: read-out: Human hepatic intrinsic clearance.

Broadly, the clearance is a measure of how efficiently the substance is removed, as volume per time. By bioavailability is commonly meant dose-corrected exposure relative to a reference, in per cent. As for `COc1ccc(-n2nc(C3(O)CCN(C(=O)N(C)O)CC3)c(F)c2-c2ccc(C)cc2)cc1` [Comparative Example 29, 4-(4-Fluoro-1-(4-methoxyphenyl)-5-(4-tolyl)-1H-pyrazol-3-yl)-1-(N-hydroxy-N-methylcarbamoyl)-4-piperidinol, reference compound], the no-observed-adverse-effect-level result in data set [1] was “less than 30 mg/kg/day”. Also, the microsomal CLint at 2 μmol/L in data set [2] was found to be 267 µL/min/mg. In data set [3], the clearance was 94.5 mL/min/kg and the bioavailability amounted to 54%. The microsomal CLint at 2 μmol/L in data set [4] (read-out: Hepatic intrinsic clearance, Human) was found to be 110 µL/min/mg. In addition, the “analgesic effect 3 hours after the oral administration (von Frey test)” value (“analgesic effect 3 hours” for short) in data set [5] (positive controls, gabapentin 30 mg/kg oral, dose of Comparative Example 29 not given) was “drastically decreased”. Also, the “time of strongest analgesic effect after oral administration (von Frey test)” value in data set [5] (positive controls, gabapentin 30 mg/kg oral, dose of Comparative Example 29 not given, FIGS. 1 to 4) was 1 h.

The term ED50 denotes the dose at which the effect has come halfway, by size or by number of responders. As to `COc1ccc(-n2nc(C3(O)CCC(O)CC3)cc2-c2ccc(C)cc2)cc1` (stereo not drawn) [Example 2-A, 1-(1-(4-Methoxyphenyl)-5-(p-tolyl)-1H-pyrazol-3-yl)cyclohexan-trans-1,4-diol], in data set [6] (Mus musculus, read-out: ED50), the median effective dose (ED50) was found to be 1.8 mg/kg. In addition, in data set [4] (setting [7]), the microsomal CLint at 2 μmol/L worked out at 45.1 µL/min/mg. Moreover, the “analgesic effect 3 hours” value in data set [5] (oral administration of 0.3 mg/kg, FIG. 1) was “a strong analgesic effect was maintained”.

For `COc1ccc(-n2nc(C3(O)CCC(O)CC3)cc2-c2ccc(C)cc2)cc1` (stereo not drawn) [Example 2-B, 1-(1-(4-methoxyphenyl)-5-(p-tolyl)-1H-pyrazol-3-yl)cyclohexane-cis-1,4-diol], the no-observed-adverse-effect-level in data set [1] is listed as 200 mg/kg/day. Also, in data set [1] (mouse, in vivo, po, 1000 mg/kg/day), the toxicity findings result is “possibilities of induction of hepatotoxicity, effects on immune organs/tissues and induction of gastrointestinal toxicity were suggested”. The ED50 in data set [6] is 1.40 mg/kg. Moreover, in data set [3], the clearance is 16.2 mL/min/kg and the bioavailability amounted to 88%.

As for `COc1ccc(-n2nc(C3(O)CCC(O)CC3)c(Cl)c2-c2ccc(C)cc2)cc1` (stereo not drawn) [Example 59, 1-(4-Chloro-1-(4-methoxyphenyl)-5-(p-tolyl)-1H-pyrazol-3-yl)cyclohexan-cis-1,4-diol], in data set [6] (Mus musculus, read-out: ED50), the median effective dose (ED50) was 9.92 mg/kg. The microsomal CLint at 2 μmol/L in data set [4] (setting [7]) was found to be 44.6 µL/min/mg. In data set [5], the “von Frey total score compared to the vehicle group” value is recorded as “significantly improved”. The same compound displayed a Score improvement rate in data set [5] (dose 10 mg/kg oral, vehicle A) of 66%. Also, in data set [5] (dose 10 mg/kg oral, […]), the “von Frey Total Score Observed 1 Hour after Oral Administration (mean ± standard error), Compound-administered group” value stood at 1.7 ± 0.6.

On to `COc1ccc(-n2nc(C3(O)CCC(O)(C(F)(F)F)CC3)cc2-c2ccc(C)cc2)cc1` (stereo not drawn) [Example 62, 1-(1-(4-Methoxyphenyl)-5-(p-tolyl)-1H-pyrazol-3-yl)-4-(trifluoromethyl)cyclohexan-cis-1,4-diol], for which, in data set [6] (Mus musculus, read-out: ED50), the median effective dose (ED50) amounted to 0.54 mg/kg. Moreover, the microsomal CLint at 2 μmol/L in data set [4] (setting [7]) was 33.3 µL/min/mg. The “analgesic effect 3 hours” value in data set [5] (oral administration of Example 2-B and Example 62 in amounts of 0.3 and 1.0 mg/kg, respectively, FIG. 2, FIG. 3) is on record as “a strong analgesic effect was maintained”.

As for `COc1ccc(-n2nc(C3(O)CCC(C(=O)O)CC3)cc2-c2ccc(C)cc2)cc1` (stereo not drawn) [Example 64, 4-hydroxy-4-(1-(4-methoxyphenyl)-5-p-tolyl-1H-pyrazol-3-yl)-cis-cyclohexanecarboxylic acid], in data set [6] (Mus musculus, read-out: ED50), the ED50 came out at 1.19 mg/kg. Also, in data set [4] (setting [7]), the microsomal CLint at 2 μmol/L is 2.06 µL/min/mg. Besides, the “von Frey total score compared to the vehicle group” value in data set [5] was “significantly improved”. In data set [5] (dose 1 mg/kg oral, vehicle C), this compound came in with a Score improvement rate of 57%. In addition, the “von Frey Total Score Observed 1 Hour after Oral Administration (mean ± standard error), Compound-administered group” value in data set [5] (dose 1 mg/kg oral, vehicle C (0.5% methyl cellulose, suspension)) is given as 2.3 ± 0.5.
